This passage reports IC50 and inhibition results from ChEMBL document CHEMBL4396966, “Synthesis, biological evaluation and molecular docking of 4-Amino-2H-benzo[h]chromen-2-one (ABO) analogs containing the piperazine moiety” (Bioorg Med Chem, 2019).

As a reminder, the IC50 is the concentration that gives 50% inhibition. What is called inhibition is the relative decrease from the control value, in per cent.

Activity calls are given as the source filed them. The rule behind the calls is not given here. Some results are limits rather than exact numbers.

The target of one assay is T1, Androgen receptor (Rattus norvegicus, UniProt P15207).
T1 sequence (P15207 whole entry): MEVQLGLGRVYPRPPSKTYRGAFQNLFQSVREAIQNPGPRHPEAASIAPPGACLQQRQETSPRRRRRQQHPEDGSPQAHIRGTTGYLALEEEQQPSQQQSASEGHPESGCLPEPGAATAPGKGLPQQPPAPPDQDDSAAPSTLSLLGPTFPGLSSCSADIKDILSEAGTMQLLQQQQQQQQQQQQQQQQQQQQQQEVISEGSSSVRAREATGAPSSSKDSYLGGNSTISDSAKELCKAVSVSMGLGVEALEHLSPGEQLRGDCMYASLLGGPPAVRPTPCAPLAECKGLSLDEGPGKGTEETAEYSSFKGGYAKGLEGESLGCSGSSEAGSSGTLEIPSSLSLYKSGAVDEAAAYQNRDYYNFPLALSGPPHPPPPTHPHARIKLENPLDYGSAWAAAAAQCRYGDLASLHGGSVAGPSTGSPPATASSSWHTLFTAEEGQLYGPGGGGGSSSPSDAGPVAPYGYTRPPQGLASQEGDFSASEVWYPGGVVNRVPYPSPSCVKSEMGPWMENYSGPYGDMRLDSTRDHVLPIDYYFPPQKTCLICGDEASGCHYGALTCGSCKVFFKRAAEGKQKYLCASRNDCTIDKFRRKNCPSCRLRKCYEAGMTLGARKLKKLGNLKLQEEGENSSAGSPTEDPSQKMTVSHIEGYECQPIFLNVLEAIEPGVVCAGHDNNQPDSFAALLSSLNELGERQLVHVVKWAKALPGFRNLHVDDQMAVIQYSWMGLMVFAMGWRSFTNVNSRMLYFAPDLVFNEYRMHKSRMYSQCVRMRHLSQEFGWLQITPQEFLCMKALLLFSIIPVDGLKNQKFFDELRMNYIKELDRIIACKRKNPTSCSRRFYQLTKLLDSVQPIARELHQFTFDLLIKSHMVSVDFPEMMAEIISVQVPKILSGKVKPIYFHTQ
As to the kind of experiment: Displacement of fluormone-AL Green from His-tagged/GST-fused recombinant rat androgen receptor LBD expressed in insect cells measured after 4 hrs by fluorescence polarization assay.

The target of assay [1] is T2, Androgen receptor (Homo sapiens) (UniProt P10275).
T2 sequence (whole entry): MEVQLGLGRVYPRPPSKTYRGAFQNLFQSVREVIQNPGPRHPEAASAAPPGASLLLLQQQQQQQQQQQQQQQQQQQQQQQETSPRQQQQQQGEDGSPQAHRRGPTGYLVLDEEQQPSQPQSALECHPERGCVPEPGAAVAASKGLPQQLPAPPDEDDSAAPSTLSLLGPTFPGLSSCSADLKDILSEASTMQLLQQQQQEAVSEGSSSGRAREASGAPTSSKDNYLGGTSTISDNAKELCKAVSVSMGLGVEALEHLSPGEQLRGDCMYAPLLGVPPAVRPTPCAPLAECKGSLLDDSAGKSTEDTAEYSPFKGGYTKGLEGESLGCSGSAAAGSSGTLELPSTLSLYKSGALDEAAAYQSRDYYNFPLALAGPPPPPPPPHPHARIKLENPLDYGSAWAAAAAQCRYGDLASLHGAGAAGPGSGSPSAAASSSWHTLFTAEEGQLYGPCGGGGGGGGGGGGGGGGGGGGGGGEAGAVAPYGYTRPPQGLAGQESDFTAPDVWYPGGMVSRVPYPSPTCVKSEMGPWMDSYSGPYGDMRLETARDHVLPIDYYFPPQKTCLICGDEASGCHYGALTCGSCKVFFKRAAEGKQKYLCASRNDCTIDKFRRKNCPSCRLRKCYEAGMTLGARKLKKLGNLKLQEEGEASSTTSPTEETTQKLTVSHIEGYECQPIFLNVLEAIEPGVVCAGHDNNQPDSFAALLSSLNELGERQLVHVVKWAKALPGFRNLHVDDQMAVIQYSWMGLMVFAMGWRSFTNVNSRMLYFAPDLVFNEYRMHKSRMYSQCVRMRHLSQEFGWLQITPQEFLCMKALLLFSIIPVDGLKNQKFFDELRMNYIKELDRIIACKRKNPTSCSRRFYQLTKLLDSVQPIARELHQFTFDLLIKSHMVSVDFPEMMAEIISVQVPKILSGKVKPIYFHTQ
As to conditions: at 10 µM.

The test system of the next assay is PC-3. As to the kind of experiment: Antiproliferative activity against AR-deficient human PC3 cells assessed as reduction in cell viability after 24 hrs by CCK-8 assay. The settings on record: PC-3, 24 h. The class given is functional, cell-based.
Assay [2] is described as follows: Antiproliferative activity against AR-rich human LNCaP-hr cells assessed as reduction in cell viability after 24 hrs by CCK-8 assay. The class given is functional. Background: Formazan colour is commonly taken as a measure of viable cells.

Regarding `O=c1cc(N2CCN(c3ccc(Cl)cc3)CC2)c2ccc3ccccc3c2o1`, the half-inhibitory concentration (IC50) on Androgen receptor was 2.56 µM; in the assay with PC-3 it was > 200 µM; in assay [2], 1.3 µM. Besides, the inhibition in assay [1] stood at 53.7%.
The matching figures for `Cc1ccc(N2CCN(c3cc(=O)oc4c3ccc3ccccc34)CC2)cc1`: 3.02 µM, 136 µM, 7.7 µM and 53.3%.
In assay [1], `Cc1cccc(N2CCN(c3cc(=O)oc4c3ccc3ccccc34)CC2)c1` yielded an inhibition of 45.5%. In addition, the IC50 with PC-3 was 54.1 µM; in assay [2] it was 32.5 µM.
With `O=c1cc(N2CCN(c3ccccn3)CC2)c2ccc3ccccc3c2o1`, the results for the IC50 (on Androgen receptor; with PC-3; in assay [2]) were 2.21 µM, 150 µM and 1.92 µM, respectively. The same compound had an inhibition in assay [1] of 54.5%.
The matching figures for `O=c1cc(N2CCN(c3ccccc3C(F)(F)F)CC2)c2ccc3ccccc3c2o1`: 1.04 µM, 108 µM, 1.14 µM and 65.4%.
For `O=c1cc(N2CCN(C(c3ccc(F)cc3)c3ccc(F)cc3)CC2)c2ccc3ccccc3c2o1`, in that order: 0.85 µM, > 200 µM, 1.02 µM and 70.3%.
The matching figures for `COc1ccccc1N1CCN(c2cc(=O)oc3c2ccc2ccccc23)CC1`: 1.26 µM, > 200 µM, 1.7 µM and 61.2%.
Compound `O=c1cc(N2CCN(c3ccc(C(F)(F)F)cc3)CC2)c2ccc3ccccc3c2o1` gave an inhibition in assay [1] of 20.7%. For the same compound, the IC50 is > 200 µM in the assay on PC-3 and 12.3 µM in assay [2].
Take `COc1ccc(N2CCN(c3cc(=O)oc4c3ccc3ccccc34)CC2)cc1`: the values for the IC50 (on Androgen receptor; with PC-3; in assay [2]) were 1.56 µM, 117 µM and 5.6 µM, respectively. The same compound gave an inhibition in assay [1] of 59.1%.
For `CC(C)(C)NC(=O)[C@H]1CC[C@H]2[C@@H]3CC[C@H]4NC(=O)C=C[C@]4(C)[C@H]3CC[C@]12C` [FINASTERIDE], in assay [2], the IC50 came to 14.5 µM.
`O=c1cc(N2CCN(c3ccccc3F)CC2)c2ccc3ccccc3c2o1`: the figures for the IC50 (at Androgen receptor; with PC-3; in assay [2]) were 3.72 µM, 124 µM and 1.89 µM, respectively. In assay [1], the inhibition was 52.3%.
With `O=c1cc(N2CCN(c3ccc(Br)cc3)CC2)c2ccc3ccccc3c2o1`, in assay [1], the inhibition was 25.1%. The IC50 is > 200 µM in the assay on PC-3 and > 50 µM in assay [2].
Consider `Cc1ccccc1N1CCN(c2cc(=O)oc3c2ccc2ccccc23)CC1`, for which the IC50 was determined as 3.54 µM on Androgen receptor, 109 µM in the assay on PC-3 and 4.43 µM in assay [2]. The same compound showed an inhibition in assay [1] of 53.1%.
As to `Cc1ccc(Cl)cc1N1CCN(c2cc(=O)oc3c2ccc2ccccc23)CC1`, the inhibition in assay [1] worked out at 48.3%. Besides, the IC50 in the assay on PC-3 is > 200 µM; in assay [2], 15.3 µM.
`O=c1cc(N2CCN(c3ccccc3Cl)CC2)c2ccc3ccccc3c2o1`: the IC50 on Androgen receptor was 3.87 µM; in the assay on PC-3 it was > 200 µM; in assay [2], 9.69 µM. This compound also had an inhibition in assay [1] of 51.2%.
As for `COc1cccc(N2CCN(c3cc(=O)oc4c3ccc3ccccc34)CC2)c1`, the inhibition in assay [1] was 41.2%. Also, the IC50 was > 200 µM with PC-3 and 13.3 µM in assay [2].
For `O=c1cc(N2CCN(c3cccc(Cl)c3)CC2)c2ccc3ccccc3c2o1`, in that order: 40.1%, 165 µM and 2.9 µM.
Turning to `O=c1cc(N2CCN(Cc3ccccc3)CC2)c2ccc3ccccc3c2o1`, the IC50 at Androgen receptor is 0.55 µM; in the assay with PC-3 it was > 200 µM; in assay [2], 0.52 µM. Moreover, in assay [1], the inhibition came out at 72.1%.
The matching figures for `O=c1cc(N2CCN(c3ccccc3)CC2)c2ccc3ccccc3c2o1`: 3.94 µM, > 200 µM, 5.05 µM and 51.2%.
`N#Cc1ccc(N2CCN(c3cc(=O)oc4c3ccc3ccccc34)CC2)c(F)c1` registered an inhibition in assay [1] of 30.2%. Further, the results for the 50% inhibitory concentration (IC50) (in the assay on PC-3; in assay [2]) were > 200 µM and 37.8 µM, respectively.
Consider `CCOc1ccccc1N1CCN(c2cc(=O)oc3c2ccc2ccccc23)CC1`, for which the IC50 is 2.08 µM on Androgen receptor, > 200 µM in the assay on PC-3 and 1.43 µM in assay [2]. For the same compound, the inhibition in assay [1] is 58.5%.
As for `C[C@]1(O)CC[C@H]2[C@@H]3CCC4=CC(=O)CCC4=C3C=C[C@@]21C`, the inhibition entry in assay [1] was “inactive”.
Regarding `O=c1cc(N2CCN(c3ccc(F)cc3)CC2)c2ccc3ccccc3c2o1`, the inhibition in assay [1] was found to be 43.5%. Further, the IC50 in the assay on PC-3 is > 200 µM; in assay [2] it was 19.3 µM.
As to `O=c1cc(N2CCN(c3ccc(F)cc3F)CC2)c2ccc3ccccc3c2o1`, the inhibition in assay [1] was determined as 45.1%. In addition, the IC50 in the assay on PC-3 was 122 µM; in assay [2], > 50 µM.
